Data published in patent EP0733365A2, “Use of benzoquinolin-3-ones for the treatment and prevention of prostatic cancer” (priority 1995, dated 1996).
“And” between values parts separate entries of the source, which are not always exact repeats. Identical values can stand only once. Like-named read-outs stand apart in the source and are kept apart here.

Target: T1, Type I 5α-reductase (Homo sapiens, UniProt P18405)
T1 construct: Scalp punch biopsies from graft recipient sites were obtained; from tissue; host or cells: human scalp skin (punch biopsies from hair transplant procedures); 100,000 x g pellet of the homogenate
T1 sequence (P18405 1-259): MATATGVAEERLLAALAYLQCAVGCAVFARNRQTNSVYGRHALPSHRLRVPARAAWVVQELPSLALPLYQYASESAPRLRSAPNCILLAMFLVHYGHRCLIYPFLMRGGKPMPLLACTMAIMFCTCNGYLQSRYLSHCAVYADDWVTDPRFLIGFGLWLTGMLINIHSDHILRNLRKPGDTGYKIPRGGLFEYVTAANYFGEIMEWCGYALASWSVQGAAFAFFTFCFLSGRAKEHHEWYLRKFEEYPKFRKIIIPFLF
Assay: Human Type I steroid 5α-reductase homogenate assay (conversion of [3H]-testosterone to [3H]-DHT and other 5α-reduced metabolites)
Assay type: biochemical
Protocol: Methodology of Human Type I Steroid 5α-Reductase Assays
Preparation of Type I 5α-Reductase from Human Scalp: Scalp punch biopsies from graft recipient sites were obtained, following the proper Informed Consent and Institutional Review Board guidelines, from human hair transplant procedures immediately after surgery and were frozen on dry ice and stored at -80°C. Approximately 60-75 punches from one surgical procedure were used to generate an enzyme preparation. The subcutaneous tissue was cut away and discarded. The skin was frozen with liquid nitrogen and pulverized to powder. The powder was homogenized in 30 mL of ice-cold buffer (20 mM Tris-HCl, pH 7.5) using a Brinkmann Polytron (Westbury, NY) with a PTA 10-S probe and a setting of 7. The homogenization procedure consisted of four 15 second pulses. Connective tissue was cleared from the probe with forceps between pulses. The homogenate was then filtered through cheese cloth and the filtrate centrifuged at 100,000 x g for one hour in a Beckman L8-60M ultracentrifuge. The pellet was resuspended by homogenization with a Dounce homogenizer using the same buffer solution. An aliquot was taken for protein determination by the Lowry method, Lowry, et al., Protein Measurement with the Folin Phenol Reagent, J. Biol. Chem., 193, 265-75 (1951). Aliquots of the enzyme preparation were stored at -80° until use. Human 5α-Reductase Homogenate Assay: This enzyme assay is based on the conversion of [^3H]-testosterone to [^3H]-5α -dihydrotestosterone (DHT) and other 5α-reduced metabolites. […] In a total volume of 1.0 mL, the Type I assay contained 2.6 µCi [^3H]-testosterone (50 nM), 500 µM of reduced nicotine adenine dinucleotide phosphate, 100 mM Tris-HCl, pH 7.5, (in Type II assays, 40 mM sodium acetate at pH 5.5 is used instead of Tris-HCl) and test compounds as indicated. Test compounds were added in 20 µL of dimethylsulfoxide (20 µL of dimethylsulfoxide was added to blanks and controls). The reaction was initiated by the addition of 0.5 mg of Type I 5α-reductase. The reaction mixture was incubated at 25° for 180 min, and terminated by the addition of 1 mL ice-cold stopping solution. The stopping solution contained 40 µM each of non-radioactive testosterone, DHT, androstenedione, androstanedione, androsterone, androstan-3β17β- diol, and androstan-3α,17β-diol. The samples were prepared for high performance liquid chromatography by solid phase extraction. Disposable solid matrix extraction columns (C-18 reversed phase, 6 mL, 500 mg; Bond Elut™ from Analytichem International; Harbor City, CA) were conditioned by washing with 5 mL of methanol followed by 5 mL of deionized water. The reaction mixtures were then applied to the columns. The columns were subsequently washed with 5 mL of acetone:water (1:4), followed by 0.3 mL of methanol. The samples were then eluted with 3 mL of methanol and collected in 20 mL scintillation vials. Three mL of water was then added to each scintillation vial. The solutions were then transferred to tubes and centrifuged for 30 min at 1000 x g to remove any particulate material before chromatography. The [^3H]-testosterone substrate and its metabolites were separated by chromatography using a C-18 reversed phase column (Beckman Ultrasphere 5µm spherical 80A pore, part no. 235329, 4.6 mm i.d. x […]) with an isocratic mobile phase (46 water: 46 methanol: 8 tetrahydrofuran by volume). The column temperature was maintained at 35° and the flow rate was 1.5 mL/min. A 400 µL aliquot was injected onto the column and radioactivity was determined using a Beckman 171 in-line flow radioisotope detector in conjunction with Rainin Dynamax™ software and a Macintosh computer. The flow rate of the Atomflow™ scintillation fluid was 4.5 mL / min.

[1] = 0.3 µM concentration of compound, compared to control reaction mixtures, 0.3 µM
[2] = 0.3 µM concentration of compound, compared to control reaction mixtures
[3] = 0.3 µM concentration of compound, compared to control reaction mixtures, read-out: percent inhibition of Type I 5AR

CN1C(=O)CC[C@]2(C)c3ccc(-c4cc(F)c(F)c(F)c4)cc3CC[C@@H]12 [Example 206, (+)-(4aR)-(10bR)-4-methyl-8-(3,4,5-trifluorophenyl)-10b-methyl-1,2,3,4,4a,5,6,10b-octahydrobenzo[f]quinolin-3-one]
percent inhibition of Type I 5AR [1]: 100%

(+)-(4aR)-(10bR)-4-methyl-8-(4-fluoro-3-trifluoromethylphenyl)-10b-methyl-1,2,3,4,4a,5,6,10b-octahydrobenzo[f]quinolin-3-one [Example 46]
percent inhibition of Type I 5AR [2]: 3%

CN1C(=O)CC[C@]2(C)c3ccc(Sc4nc5c(ccc6ccccc65)s4)cc3CC[C@@H]12 [Example 163, (+)-(4aR)-(10bR)-4-methyl-8-(2-naphtho〈1,2-d〉-thiazolylthio)-10b-methyl-1,2,3,4,4a 5,6,10b-octahydrobenzo[f]-quinolin-3-one]
percent inhibition of Type I 5AR [2]: 80%

(+)-(4aR)-(10bR)-4-methyl-8-(3-[1-benzyl-4-piperidinylcarboxamidolphenyl)-10b-methyl-1,2,3,4,4a,5,6,10b-octahydrobenzo[f]quinolin-3-one [Example 209]
percent inhibition of Type I 5AR [2]: 24%

C[C@]12CCC(=O)N[C@@H]1CCc1cc(-c3cnc4ccccc4c3)ccc12 (single isomer, unassigned) [Example 45]
inhibition at 0.3 µM [3]: 11%

CN1C(=O)CC[C@]2(C)c3ccc(-c4ccc(NS(C)(=O)=O)cc4)cc3CC[C@@H]12 [Example 123, (+)-(4aR)-(10bR)-4-methyl-8-(4-methylsulfonamidophenyl)-10b-methyl-1,2,3,4,4a,5,6,10b-octahydrobenzo[f]quinolin-3-one]
inhibition at 0.3 µM [3]: 10%

C[C@]12CCC(=O)N[C@@H]1CCc1cc(Sc3ccccc3Cl)ccc12 (single isomer, unassigned) [Example 7]
inhibition at 0.3 µM [3]: 49%

(+)-(4aR)-(10bR)-4-methyl-8-benzyloxycarbonyl-10b-methyl-1,2,3,4,4a,5,6,10b-octahydrobenzo[f]quinolin-3-one [Example 144]
percent inhibition of Type I 5AR [2]: 90%

CN1C(=O)CC[C@]2(C)c3ccc(C=Cc4ccccc4)cc3CC[C@@H]12 [Example 285, (4aR)-(10bR)-4,10b-dimethyl-8-(2-phenylethenyl)-1,2,3,4,4a,5,6,10b-octahydrobenzo[f]quinolin-3-one]
percent inhibition of Type I 5AR [1]: 93%

CN1C(=O)CC[C@]2(C)c3ccc(/C=C/c4cncc5ccccc45)cc3CC[C@@H]12 [Example 281, (4aR)-(10bR)-4,10b-dimethyl-8-(2-[4-isoquinolinyl]ethenyl)-1,2,3,4,4a,5,6,10b-octahydrobenzo[f]quinolin-3-one]
inhibition at 0.3 µM [3]: 75%

(+)-(4aR)-(10bR)-4-methyl-8-(2aR,4S-1-benzoyl-4-dipropylamino-2,2a,3,4-tetrahydrobenz[cd]-1H-indol-7-yl)-10b-methyl-1,2,3,4,4a,5,6,10b-octahydrobenzo[f]quinolin-3-one [Example 225]
percent inhibition of Type I 5AR [2]: 47%

CN1C(=O)CC[C@]2(C)c3ccc(-c4ccc(Cl)cc4)cc3CC[C@@H]12 [Example 50, (+)-(4aR)-(10bR)-4-methyl-8-(4-chlorophenyl)-10b-methyl-1,2,3,4,4a,5,6,10b-octahydrobenzo[f]quinolin-3-one]
percent inhibition of Type I 5AR [1]: 94%

C[C@]12C=CC(=O)N[C@@H]1CCc1cc(-c3cc4ccccc4cn3)ccc12 [Example 142, (+)-(4aR)-(10bR)-8-(3-isoquinolinyl)-10b-methyl-3,4,4a,5,6,10b-hexahydrobenzo[f]quinolin-3-one]
inhibition at 0.3 µM [3]: 22%

CN1C(=O)CC[C@]2(C)c3ccc(CCc4ccccc4)cc3CC[C@@H]12 [Example 280, (4aR)-(10bR)-4,10b-dimethyl-8-(2-phenylethyl)-1,2,3,4,4a,5,6,10b-octahydrobenzo[f]quinolin-3-one]
percent inhibition of Type I 5AR [1]: 100%

CN1C(=O)CC[C@]2(C)c3ccc(Sc4nc5c(Cl)cccc5s4)cc3CC[C@@H]12 [Example 164, (+)-(4aR)-(10bR)-4-methyl-8-(4-chloro-2-benzothiazolylthio)-10b-methyl-1,2,3,4,4a,5,6,10b-octahydrobenzo[f]quinolin-3-one]
percent inhibition of Type I 5AR [1]: 87%

(+)-(4aR)-(10bR)-4-methyl-8-(2-[6-benzyloxy]naphthyl)-10b-methyl-1,2,3,4,4a,5,6,10b-octahydrobenzo[f]quinolin-3-one [Example 62]
percent inhibition of Type I 5AR [2]: 45%

CN1C(=O)CC[C@]2(C)c3ccc(/C=C/c4ccc5ccccc5n4)cc3CC[C@@H]12 [Example 283, (4aR)-(10bR)-4,10b-dimethyl-8-(2-[2-quinolinyl]ethenyl)-1,2,3,4,4a,5,6,10b-octahydrobenzo[f]quinolin-3-one]
inhibition at 0.3 µM [3]: 87%

Cc1cccc2sc(Sc3ccc4c(c3)CC[C@H]3N(C)C(=O)CC[C@]43C)nc12 [Example 159, (+)-(4aR)-(10bR)-4-methyl-8-(4-methyl-2-benzothiazolylthio)-10b-methyl-1,2,3,4,4a,5,6,10b-octahydrobenzo[f]quinolin-3-one]
percent inhibition of Type I 5AR [2]: 87, 87%
inhibition at 0.3 µM [3]: 87%

(+)-(4aR)-(10bR)-4-methyl-8-(2aR,4S-1-benzoyl-4-amino-2,2a,3,4-tetrahydrobenz[cd]-1H-indol-7-yl)-10b-methyl-1,2,3,4,4a,5,6,10b-octahydrobenzo[f]quinolin-3-one [Example 226]
percent inhibition of Type I 5AR [2]: 16%

C[C@]12CCC(=O)N[C@@H]1CCc1cc(-c3cnc4ccccc4c3)ccc12 [Example 196, (+)-(4aR)-(10bR)-8-(3-quinolinyl)-10b-methyl-1,2,3,4,4a,-5,6,10b-octahydrobenzo[f]quinolin-3-one]
percent inhibition of Type I 5AR [2]: 11%

CN1C(=O)CC[C@]2(C)c3ccc(/C=C/c4cnc5ccccc5c4)cc3CC[C@@H]12 [Example 282, (4aR)-(10bR)-4,10b-dimethyl-8-(2-[3-quinolinyl]ethenyl)-1,2,3,4,4a,5,6,10b-octahydrobenzo[f]quinolin-3-one]
inhibition at 0.3 µM [3]: 75%

CN1C(=O)CC[C@]2(C)c3ccc(-c4cccc5ccccc45)cc3CC[C@@H]12 [Example 53, (+)-(4aR)-(10bR)-4-methyl-8-(1-naphthyl)-10b-methyl-1,2,3,4,4a,5,6,10b-octahydrobenzo[f]quinolin-3-one]
percent inhibition of Type I 5AR [1]: 100% and 66%

CN1C(=O)CC[C@]2(C)c3ccc(-c4ccc5c(c4)CCC5O)cc3CC[C@@H]12 (single isomer, unassigned; (+)) [Example 245]
inhibition at 0.3 µM [3]: 54%

CN1C(=O)CC[C@]2(C)c3ccc(-c4ccc(-c5ccc(NC(=O)C(C)(C)C)s5)cc4)cc3CC[C@@H]12 [Example 222, (+)-(4aR)-(10bR)-4-methyl-8-(4-[(2-t-butylcarbonylamino]-5-thienyl]phenyl)-10b-methyl-1,2,3,4,4a,5,6,10b-octahydrobenzo[f]quinolin-3-one]
percent inhibition of Type I 5AR [2]: 86%

CN1C(=O)CC[C@]2(C)c3ccc(C=Cc4ccccc4)cc3CC[C@@H]12 [Example 279, (4aR)-(10bR)-4,10b-dimethyl-8-(2-phenylethenyl)-1,2,3,4,4a,5,6,10b-octahydrobenzo[f]quinolin-3-one]
inhibition at 0.3 µM (read-out: percent inhibition of Type I 5AR, 0.3 µM concentration of compound, compared to control reaction mixtures): 85%
